Data published in patent US8716279B2, “Pharmaceutical compositions of clonazepam and method of use thereof” (Jazz Pharmaceuticals, Inc., priority 2006, dated 2014).

Key:
[1] = Viscosity of solvent matrices; type: physicochemical; conditions: for measured viscosity: Gilmont falling ball viscometer
Experimental: (§1) Fourteen representative solvent matrices used for clonazepam formulations were tested for spray pattern and compared with water. The solvent mixtures were made up, spiked with minute amounts of Coomassie Brilliant Blue Dye and 100 μL were subsequently filled into Pfeiffer unit-dose devices (Pfeiffer of America, Princeton, N.J.). To measure the spray pattern, the devices were actuated below a sheet of paper that was located 3 cm above the spray nozzle. All measurements were made at ambient room temperature (20-25° C.). The smallest (Dmin) and the largest (Dmax) diameter of the blue pattern formed on the sheet of paper were measured and the results used to calculate the Dmax/Dmin ratio, the area of the pattern and the average spray angle. The plume area at 3 cm was calculated using the equation for the area of an ellipse using the half of the two diameters as the ellipse radii. Viscosity of all formulations was measured using Brookfield DV-I viscometer (Brookfield Engineering Laboratories, Inc., Middleboro, Mass.).
As weather may dictate substantially different conditions of use, the effect of temperature on viscosity was determined. A Gilmont falling ball viscometer was filled with diethylene glycol monoethyl ether and calibrated for several hours at each temperature.

[2] = Spray pattern of solvent matrices from Pfeiffer unit-dose devices; type: physicochemical; conditions: 100 μL, Pfeiffer unit-dose device, 20-25° C.
Experimental: as §1

[3] = Human pharmacokinetic, safety and tolerability study (oral, intravenous, intranasal cross-over); conditions: metabolite after 1 mg clonazepam
Experimental: The human pharmacokinetics, safety, and tolerability of the clonazepam compositions of the present invention formulated for intranasal delivery for therapeutic applications are evaluated using standard clinical procedures. Clonazepam compositions formulated for intranasal delivery are provided, for example, for application by the participants to intranasal mucosa.
A primary objective of initial studies in humans is to determine and compare pharmacokinetic profiles of three dosage forms of clonazepam: oral, i.v., and intranasal, following single administration. An example of such a study in humans is a cross-over study performed in 12 healthy male volunteers. Plasma and urine level of clonazepam and 7-amino-clonazepam are determined, for example, using HPLC and UV detection. […] Further the initial studies in humans are used to determine local tolerability of intranasal formulation using questionnaire and the Visual Analog Scale (VAS). VAS is a validated instrument that has been used in numerous studies to quantify subjective opening of the nasal passages. In addition, cognitive, sleepiness and mood effects are evaluated using questionnaires and scales (see, e.g., Example 10 below). Further, attention and vigilance may be evaluated using, for example, LEEDS Psychomotor Multiple Choice Reaction Time (MCRT) testing.
A human pharmacokinetic study was carried out as described in Example 8.
15 young, healthy male volunteers received a single dose of 1 mg clonazepam by oral, intravenous and intranasal routes in a three-period cross-over design.

O [Water]
Avg. viscosity (cP) ([1]; Brookfield DV-I viscometer, solvent matrix without clonazepam): 1.0 cP
Plume area at 3 cm (cm^2) [2]: 15.52 cm^2
Ratio Dmax/Dmin [2]: 1.10

Nc1ccc2c(c1)C(c1ccccc1Cl)=NCC(=O)N2 [7-Amino-clonazepam]
mean AUCt ([3]; intranasal route): 16.9 ng·h/mL
mean Cmax ([3]; intranasal route, 24-hour sampling): 1.17 ng/mL
mean AUCt ([3]; intravenous route): approximately 30 ng·h/mL
mean Cmax ([3]; intravenous route): approximately 2 ng/mL
mean AUCt ([3]; oral route): approximately 30 ng·h/mL
mean Cmax ([3]; oral route): approximately 2 ng/mL

CCOCCOCCO [diethylene glycol monoethyl ether, Diethylene glycol monoethyl ether]
measured viscosity ([1]; 8° C.): 5.4 cP
measured viscosity ([1]; 23° C.): 3.8 cP
measured viscosity ([1]; 40° C.): 3.1 cP
measured viscosity ([1]; −17° C.): 6.6 cP
